PMC9046208, “Foldamers reveal and validate therapeutic targets associated with toxic α-synuclein self-assembly” (Nature Communications, 2022)
Entries after “also recorded” stand apart in the source; their conditions may differ.

Columns and labels:
αS oligomers = target: T1, αS oligomers (Homo sapiens, UniProt P37840); experiment: Gel shift assay of αS supernatant (oligomers); assay type: biochemical; conditions: 70 µM αS, 0.1, 0.2, 0.5 mol eq. ligand, 7 days
T1 construct: made in house; host or cells: Escherichia coli BL21(DE3), periplasm
Method: Supplementary Fig. 8. Gel-shift images of αS (70 µM) incubated in the absence (lane 2) and presence of SK-129 (a) and EGCG (b) at sub-stoichiometric ratios (0.1, 0.2, 0.5 mol eq.) for 7 days at 370C with constant shaking. The solutions of αS in the absence and presence of ligands were centrifuged and the supernatant was used for the gel shift assay. The arrows indicate the formation of various αS structures. The gel shift assay of the supernatant of the αS aggregated […]
fibers. Most of the αS was found in the supernatant as a mo nomer and a dimer in the presence of […]
their formation. The gel experiments were conducted at least two times to confirm the reproducibility of the data.
(1 picture or pasted object on this page, not shown here)

αS = target: T2, αS (Homo sapiens, UniProt P37840); experiment: Fluorescence polarization titration, SK-129F with WT αS; assay type: binding
T2 construct: made in house; host or cells: Escherichia coli BL21(DE3), periplasm
Method: All Fluorescence Polarization (FP) experiments were conducted on a Varian Cary Eclipse fluorometer (Agilent, Santa Clara, CA) equipped with a polarizer. The stock solutions of αS, 1 mM or 100 μM in 1x PBS buffer, were serially added into a solution of 10 μM SK-129F (300 μL in 1x PBS buffer) while stirring in a quartz cuvette (Fireflysci, Staten Island, NY). All FP measurements were conducted in triplicates in 20 mM Tris, 100 mM NaCl, pH 7.2 at 20 °C. The excitation and emissions wavelengths were set at 490 nm and 520 nm, respectively. Each titration was equilibrated for five min before measurements were taken for the next addition of αS solution. The addition of αS solution was continuous until no more change in the FP signal was observed. Similar conditions were used for the titration of various αS mutants and Aβ42 peptide against SK-129F. A stock solution of Aβ42 (1 mM or 100 μM in 1x PBS buffer on ice) was sequentially added to a solution of 10 μM SK-129F (300 μL in 1x PBS buffer) until no more change in the FP signal was observed. The polarization of each point was calculated using Eq. 1:1 FP=I∥−I⊥/I∥+I⊥ Where I∥ is fluorescence intensity parallel to the excitation plane and I⊥ is fluorescence intensity perpendicular to the excitation plane. The plot between the relative change in the FP signal against the concentration of the protein (αS/ Aβ42) was fit using one site binding model and Kd between SK-129F and αS (αS mutants/Aβ42) was extracted from the fit. For displacement titration, a 10 μM SK-129F solution was saturated with 10 mole equivalents of αS (300 μL in 1x PBS buffer). To this solution, a stock solution of SK-129 (1 mM or 10 mM) was serially added to displace SK-129F from the αS-SK-129F complex. The solution of SK-129 was continuously added until no more change in the FP signal was observed. A plot between the relative change in the FP signal against the concentration of SK-129 was fit using a one-site competitive binding model and Kd between SK-129 and αS was extracted from the fit.

αS1 = target: T3, αS1 (Homo sapiens, UniProt P37840, DEL6-12); experiment: Fluorescence polarization titration, SK-129F with αS1; assay type: binding; conditions: FP
T3 construct: made in house; host or cells: Escherichia coli BL21(DE3), periplasm
Method: (§1) All Fluorescence Polarization (FP) experiments were conducted on a Varian Cary Eclipse fluorometer (Agilent, Santa Clara, CA) equipped with a polarizer. The stock solutions of αS, 1 mM or 100 μM in 1x PBS buffer, were serially added into a solution of 10 μM SK-129F (300 μL in 1x PBS buffer) while stirring in a quartz cuvette (Fireflysci, Staten Island, NY). All FP measurements were conducted in triplicates in 20 mM Tris, 100 mM NaCl, pH 7.2 at 20 °C. The excitation and emissions wavelengths were set at 490 nm and 520 nm, respectively. Each titration was equilibrated for five min before measurements were taken for the next addition of αS solution. The addition of αS solution was continuous until no more change in the FP signal was observed. Similar conditions were used for the titration of various αS mutants and Aβ42 peptide against SK-129F. A stock solution of Aβ42 (1 mM or 100 μM in 1x PBS buffer on ice) was sequentially added to a solution of 10 μM SK-129F (300 μL in 1x PBS buffer) until no more change in the FP signal was observed. The polarization of each point was calculated using Eq. 1:1 FP=I∥−I⊥/I∥+I⊥ Where I∥ is fluorescence intensity parallel to the excitation plane and I⊥ is fluorescence intensity perpendicular to the excitation plane. […]

αS2 = target: T4, αS2 (Homo sapiens, UniProt P37840, DEL15-23); experiment: Fluorescence polarization titration, SK-129F with αS2; assay type: binding; conditions: FP
T4 construct: made in house
Method: as §1

αS3 = target: T5, αS3 (Homo sapiens, UniProt P37840, DEL36-45); experiment: Fluorescence polarization titration, SK-129F with αS3; assay type: binding; conditions: FP
T5 construct: Synuclein Residues (1-140); made in house
Method: as §1

αS4 = experiment: Fluorescence polarization titration, SK-129F with αS4; assay type: binding; conditions: FP
Method: as §1

SMILES	αS species in gel shift assay (αS oligomers)	Kd (αS; FP fit, WT αS, trial 1)	Kd (αS; FP fit, WT αS, trial 2)	Kd (αS; FP fit, WT αS, trial 3)	Kd (αS; FP titration, 10 μM SK-129F with αS, mean ± s.d., n = 3)	binding affinity weaker than WT αS (αS1)	binding affinity weaker than WT αS (αS2)	binding affinity weaker than WT αS (αS3)	binding affinity weaker than WT αS (αS4)
O=C(O[C@@H]1Cc2c(O)cc(O)cc2O[C@@H]1c1cc(O)c(O)c(O)c1)c1cc(O)c(O)c(O)c1 [EGCG, Epigallocatechin Gallate]	higher-order toxic oligomers; also recorded: higher-order oligomers were observed	–	–	–	–	–	–	–	–
COC(=O)c1cc(OCC(=O)O)c2cccc(NC(=O)c3cc(OC(C)C)c4cccc(NC(=O)c5cc(OCC(=O)O)c6cccc(NC(=O)c7cc(OC(C)C)c8cccc(NC(=S)NCC(=O)Nc9ccc(-c%10c%11ccc(=O)cc-%11oc%11cc(O)ccc%10%11)c(C(=O)O)c9)c8n7)c6n5)c4n3)c2n1 [SK-129F]	–	0.864 µM	0.791 µM	0.758 µM	0.81 ± 0.09 µM	3–4 fold	3–4 fold	~ 8 fold	> 10 fold
